Assay results published in ChEMBL document CHEMBL3817770, “Design and synthesis of 5-aminolaevulinic acid/3-hydroxypyridinone conjugates for photodynamic therapy: enhancement of protoporphyrin IX production and photo-toxicity in tumor cells” (Medchemcomm, 2016).
The source made the active and inactive calls. No cut-off for these calls is given here.

Assays:
MDA-MB-435 [1] = experiment: Increase in protoporphyrin 9 levels in human MDA-MB-435 cells at 50 to 250 uM after 5 hrs in presence of CP94 by fluorescence spectrometer plate reader method; type: functional, cell-based
HeLa [2] = experiment: Increase in protoporphyrin 9 levels in human HeLa cells at 50 to 250 uM after 5 hrs in presence of CP94 by fluorescence spectrometer plate reader method; type: functional, cell-based
A549 [3] = experiment: Increase in protoporphyrin 9 levels in human A549 cells at 200 uM after 3 hrs in presence of CP94 by fluorescence spectrometer plate reader method; type: functional
A549 [4] = experiment: Increase in protoporphyrin 9 levels in human A549 cells at 200 uM after 6 hrs in presence of CP94 by fluorescence spectrometer plate reader method; type: functional
A549 [5] = experiment: Increase in protoporphyrin 9 levels in human A549 cells at 200 uM after 24 hrs in presence of CP94 by fluorescence spectrometer plate reader method; type: functional
LNCaP [6] = experiment: Increase in protoporphyrin 9 levels in human LNCAP cells at 200 uM after 3 hrs in presence of CP94 by fluorescence spectrometer plate reader method; type: functional
LNCaP [7] = experiment: Increase in protoporphyrin 9 levels in human LNCAP cells at 200 uM after 6 hrs in presence of CP94 by fluorescence spectrometer plate reader method; type: functional
LNCaP [8] = experiment: Increase in protoporphyrin 9 levels in human LNCAP cells at 200 uM after 24 hrs in presence of CP94 by fluorescence spectrometer plate reader method; type: functional
A549 [9] = experiment: Phototoxicity in human A549 cells assessed as cell survival at 200 uM incubated for 4 hrs followed by irradiation with blue light for 5 mins by MTT assay; type: functional; conditions: for viability at 200 µM: A549, light or radiation study, read-out: Survival
KB [10] = experiment: Phototoxicity in human KB cells assessed as cell survival at 200 uM incubated for 4 hrs followed by irradiation with blue light for 5 mins by MTT assay; type: functional; conditions: for viability at 200 µM: light or radiation study, read-out: Survival
LNCaP [11] = experiment: Phototoxicity in human LNCAP cells assessed as cell survival at 200 uM incubated for 4 hrs followed by irradiation with blue light for 5 mins by MTT assay; type: functional; conditions: for viability at 200 µM: light or radiation study, read-out: Survival
[12] = Phototoxicity in human BPH1 cells assessed as cell survival at 200 uM incubated for 4 hrs followed by irradiation with blue light for 5 mins by MTT assay; type: cell-based, BPH-1; conditions: for viability at 4 h, 200 µM: BPH1 cells, read-out: Survival
A549 [13] = experiment: Phototoxicity in human A549 cells assessed as cell survival at 100 uM incubated for 4 hrs followed by irradiation with blue light for 5 mins in presence of CP94 by MTT assay; type: functional; conditions: A549, light or radiation study, read-out: Survival
MCF7 [14] = experiment: Phototoxicity in human MCF7 cells assessed as cell survival at 100 uM incubated for 4 hrs followed by irradiation with blue light for 5 mins in presence of CP94 by MTT assay; type: functional; conditions: MCF7, light or radiation study, read-out: Survival
LNCaP [15] = experiment: Phototoxicity in human LNCAP cells assessed as cell survival at 100 uM incubated for 4 hrs followed by irradiation with blue light for 5 mins in presence of CP94 by MTT assay; type: functional; conditions: light or radiation study, read-out: Survival
[16] = Phototoxicity in human BPH1 cells assessed as cell survival at 100 uM incubated for 4 hrs followed by irradiation with blue light for 5 mins in presence of CP94 by MTT assay; type: cell-based, BPH-1; conditions: read-out: Survival
HeLa [17] = experiment: Phototoxicity in human HeLa cells assessed as cell survival at 250 uM incubated for 4 hrs followed by irradiation with blue light for 5 mins by MTT assay; type: functional; conditions: light or radiation study, read-out: Survival
HeLa [18] = experiment: Phototoxicity in human HeLa cells assessed as cell survival at 250 uM incubated for 4 hrs followed by irradiation with blue light for 5 mins in presence of CP94 by MTT assay; type: functional; conditions: light or radiation study, read-out: Survival
MDA-MB-435 [19] = experiment: Phototoxicity in human MDA-MB-435 cells assessed as cell survival at 250 uM incubated for 4 hrs followed by irradiation with blue light for 5 mins by MTT assay; type: functional; conditions: MDA-MB-435, light or radiation study, read-out: Survival
MDA-MB-435 [20] = experiment: Phototoxicity in human MDA-MB-435 cells assessed as cell survival at 250 uM incubated for 4 hrs followed by irradiation with blue light for 5 mins in presence of CP94 by MTT assay; type: functional; conditions: MDA-MB-435, light or radiation study, read-out: Survival
A549 [21] = experiment: Dark toxicity in human A549 cells at 200 uM after 4 hrs by MTT assay; type: cell-based; conditions: a549, 4 h
MCF7 [22] = experiment: Dark toxicity in human MCF7 cells at 200 uM after 4 hrs by MTT assay; type: cell-based; conditions: mcf7, 4 h
LNCaP [23] = experiment: Dark toxicity in human LNCAP cells at 200 uM after 4 hrs by MTT assay; type: cell-based
[24] = Dark toxicity in human BPH1 cells at 200 uM after 4 hrs by MTT assay; type: cell-based; conditions: bph-1, 4 h
HeLa [25] = experiment: Phototoxicity in human HeLa cells assessed as cell survival incubated for 4 hrs followed by irradiation with blue light for 5 mins in presence of CP94 by MTT assay; type: functional, cell-based
MDA-MB-435 [26] = experiment: Phototoxicity in human MDA-MB-435 cells assessed as cell survival incubated for 4 hrs followed by irradiation with blue light for 5 mins in presence of CP94 by MTT assay; type: functional, cell-based
A549 [27] = experiment: Increase in protoporphyrin 9 levels in human A549 cells at 100 uM after 24 hrs by fluorescence spectrometer plate reader method relative to ALA; type: functional
KB [28] = experiment: Increase in protoporphyrin 9 levels in human KB cells at 100 uM after 24 hrs by fluorescence spectrometer plate reader method relative to ALA; type: functional
LNCaP [29] = experiment: Increase in protoporphyrin 9 levels in human LNCAP cells at 100 uM after 24 hrs by fluorescence spectrometer plate reader method relative to ALA; type: functional
[30] = Increase in protoporphyrin 9 levels in human BPH1 cells at 100 uM after 24 hrs by fluorescence spectrometer plate reader method relative to ALA; type: ADME, cell-based; conditions: bph-1, 24 h
[31] = Increase in protoporphyrin 9 levels in human BPH1 cells at 200 uM after 3 to 24 hrs by fluorescence spectrometer plate reader method; type: ADME, cell-based; conditions: bph-1, 200 µM
KB [32] = experiment: Increase in protoporphyrin 9 levels in human KB cells at 200 uM after 3 to 24 hrs by fluorescence spectrometer plate reader method; type: functional, cell-based
A549 [33] = experiment: Increase in protoporphyrin 9 levels in human A549 cells at 200 uM after 3 hrs by fluorescence spectrometer plate reader method; type: functional
A549 [34] = experiment: Increase in protoporphyrin 9 levels in human A549 cells at 200 uM after 6 hrs by fluorescence spectrometer plate reader method; type: functional
A549 [35] = experiment: Increase in protoporphyrin 9 levels in human A549 cells at 200 uM after 24 hrs by fluorescence spectrometer plate reader method; type: functional
A549 [36] = experiment: Increase in protoporphyrin 9 levels in human A549 cells at 200 uM after 3 hrs by fluorescence spectrometer plate reader method relative to ALA and CP94; type: functional
A549 [37] = experiment: Increase in protoporphyrin 9 levels in human A549 cells at 200 uM after 6 hrs by fluorescence spectrometer plate reader method relative to ALA and CP94; type: functional
A549 [38] = experiment: Increase in protoporphyrin 9 levels in human A549 cells at 200 uM after 24 hrs by fluorescence spectrometer plate reader method relative to ALA and CP94; type: functional
LNCaP [39] = experiment: Increase in protoporphyrin 9 levels in human LNCAP cells at 200 uM after 3 hrs by fluorescence spectrometer plate reader method; type: functional
LNCaP [40] = experiment: Increase in protoporphyrin 9 levels in human LNCAP cells at 200 uM after 6 hrs by fluorescence spectrometer plate reader method; type: functional
LNCaP [41] = experiment: Increase in protoporphyrin 9 levels in human LNCAP cells at 200 uM after 24 hrs by fluorescence spectrometer plate reader method; type: functional
HeLa [42] = experiment: Increase in protoporphyrin 9 levels in human HeLa cells after 5 hrs by fluorescence spectrometer plate reader method; type: functional, cell-based
MDA-MB-435 [43] = experiment: Increase in protoporphyrin 9 levels in human MDA-MB-435 cells after 5 hrs by fluorescence spectrometer plate reader method; type: functional, cell-based
A549 [44] = experiment: Phototoxicity in human A549 cells assessed as cell survival at 100 uM incubated for 4 hrs followed by irradiation with blue light for 5 mins by MTT assay; type: functional
MCF7 [45] = experiment: Phototoxicity in human MCF7 cells assessed as cell survival at 100 uM incubated for 4 hrs followed by irradiation with blue light for 5 mins by MTT assay; type: functional
LNCaP [46] = experiment: Phototoxicity in human LNCAP cells assessed as cell survival at 100 uM incubated for 4 hrs followed by irradiation with blue light for 5 mins by MTT assay; type: functional
[47] = Phototoxicity in human BPH1 cells assessed as cell survival at 100 uM incubated for 4 hrs followed by irradiation with blue light for 5 mins by MTT assay; type: cell-based, BPH-1; conditions: read-out: Survival
HeLa [48] = experiment: Phototoxicity in human HeLa cells assessed as cell survival incubated for 4 hrs followed by irradiation with blue light for 5 mins by MTT assay; type: functional, cell-based
MDA-MB-435 [49] = experiment: Phototoxicity in human MDA-MB-435 cells assessed as cell survival incubated for 4 hrs followed by irradiation with blue light for 5 mins by MTT assay; type: functional, cell-based
A549 [50] = experiment: Increase in protoporphyrin 9 levels in human A549 cells at 200 uM after 3 to 24 hrs by fluorescence spectrometer plate reader method; type: functional, cell-based
LNCaP [51] = experiment: Increase in protoporphyrin 9 levels in human LNCAP cells at 200 uM after 3 to 24 hrs by fluorescence spectrometer plate reader method; type: functional, cell-based

NCC(=O)CCC(=O)O [AMINOLEVULINIC ACID]
Activity (MDA-MB-435 [1]): Active
Activity (HeLa [2]): Active
Flu intensity (A549 [3]): 17.7 a.u.
Flu intensity (A549 [4]): 42.1 a.u.
Flu intensity (A549 [5]): 77.8 a.u.
Flu intensity (LNCaP [6]): 17.3 a.u.
Flu intensity (LNCaP [7]): 31.3 a.u.
Flu intensity (LNCaP [8]): 46 a.u.
viability at 200 µM (A549 [9]): 54.7%
viability at 200 µM (KB [10]): 52.6%
viability at 200 µM (LNCaP [11]): 61.9%
viability at 4 h, 200 µM [12]: 70.8%
viability at 100 µM (A549 [13]): 18.4%
viability at 100 µM (MCF7 [14]): 26.7%
viability at 100 µM (LNCaP [15]): 33.1%
viability at 4 h, 100 µM [16]: 81.9%
viability at 250 µM (HeLa [17]): 58.6%
viability at 250 µM (HeLa [18]): 26.9%
viability at 250 µM (MDA-MB-435 [19]): 61.4%
viability at 250 µM (MDA-MB-435 [20]): 28.9%
Activity (A549 [21]): Non-toxic
Activity (MCF7 [22]): Non-toxic
Activity (LNCaP [23]): Non-toxic
Activity [24]: Non-toxic
Activity (HeLa [25]): Dose-dependent effect
Activity (MDA-MB-435 [26]): Dose-dependent effect

COC(=O)CCC(=O)CNC(=O)[C@H](Cc1ccccc1)NC(=O)c1c(O)c(=O)ccn1C
fold change (FC) (A549 [27]): 3.1
fold change (FC) (KB [28]): 2.9
fold change (FC) (LNCaP [29]): 4
fold change (FC) [30]: 1.5
Activity [31]: Non-toxic
Activity (KB [32]): Active
Flu intensity (A549 [33]): 27.7 a.u.
Flu intensity (A549 [34]): 52.9 a.u.
Flu intensity (A549 [35]): 94.6 a.u.
Flu intensity (A549 [36]): 1.6 a.u.
Flu intensity (A549 [37]): 1.3 a.u.
Flu intensity (A549 [38]): 1.2 a.u.
Flu intensity (LNCaP [39]): 25.3 a.u.
Flu intensity (LNCaP [40]): 47.1 a.u.
Flu intensity (LNCaP [41]): 58.4 a.u.
Activity (HeLa [42]): Dose-dependent effect
Activity (MDA-MB-435 [43]): Dose-dependent effect
viability at 200 µM (A549 [9]): 16.3%
viability at 200 µM (KB [10]): 7.8%
viability at 200 µM (LNCaP [11]): 13.5%
viability at 4 h, 200 µM [12]: 12.4%
viability at 100 µM (A549 [44]; A549, light or radiation study, read-out: Survival): 14.7%
viability at 100 µM (MCF7 [45]; MCF7, light or radiation study, read-out: Survival): 21.1%
viability at 100 µM (LNCaP [46]; light or radiation study, read-out: Survival): 26.3%
viability at 4 h, 100 µM [47]: 75.1%
viability at 250 µM (HeLa [17]): 15.3%
viability at 250 µM (MDA-MB-435 [19]): 11.1%
Activity (A549 [21]): Non-toxic
Activity (MCF7 [22]): Non-toxic
Activity (LNCaP [23]): Non-toxic
Activity [24]: Non-toxic
Activity (HeLa [48]): Dose-dependent effect
Activity (MDA-MB-435 [49]): Dose-dependent effect

COCCn1ccc(=O)c(O)c1C(=O)N[C@@H](CC(C)C)C(=O)NCC(=O)CCC(=O)OC
Activity (A549 [27]): inactive
Activity (KB [28]): inactive
Activity (LNCaP [29]): inactive
Activity [30]: Non-toxic
Activity (A549 [50]): inactive
Activity (LNCaP [51]): inactive
Activity [31]: Non-toxic
Activity (KB [32]): inactive
Activity (A549 [9]): inactive
Activity (KB [10]): inactive
Activity (LNCaP [11]): inactive
Activity ([12]; bph-1, 4 h, 200 µM): Non-toxic
Activity (A549 [44]): inactive
Activity (MCF7 [45]): inactive
Activity (LNCaP [46]): inactive
Activity (A549 [21]): Non-toxic
Activity (MCF7 [22]): Non-toxic
Activity (LNCaP [23]): Non-toxic
Activity [24]: Non-toxic
